We go through 28 molecules from patent publication US9637473B2, “Acrylamide derivatives as antimalarial agents” (priority 2013, dated 2017).

Structures are written as SMILES. Structures can show the parent of a compound that is named as a salt.

In the experiment the test system is P. Falciparum NF54. In words: Plasmodium falciparum in vitro assay ([3H]-hypoxanthine incorporation). The note with it: Plasmodium falciparum, Erythrocyte, P. Falciparum NF54, erythrocytic stages in human red blood cells, 50% human serum. Type of experiment: cell-based. The essentials:
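This in vitro antimalarial assay used P. falciparum erythrocytic stages cultured in human erythrocytes and measured [3H]-hypoxanthine incorporation. Radioactivity on the dried filters, placed in plastic foil with 10 mL scintillation fluid, was counted in a Betaplate liquid scintillation counter. Sigmoidal inhibition curves built in Microsoft Excel gave the IC50.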
Usually IC50 stands for the midpoint of a concentration-inhibition curve. Low readings indicate greater potency in that assay, high ones weaker potency in that assay. Molecule `CN1CCC(N(C)c2ccc(CN(C(=O)/C=C/c3ccc(OC(F)(F)F)cc3)C3CCN(Cc4ccccc4)CC3)cc2)CC1` [Example 178, (E)-N-(1-Benzyl-piperidin-4-yl)-N-{4-[methyl-(1-methyl-piperidin-4-yl)-amino]-benzyl}-3-(4-trifluoromethoxy-phenyl)-acrylamide] had an IC50 of 343 nM. In other words, the sub-micromolar range.
`CN1CCC(N2CCC(N(Cc3ccc(N(C)c4ccncc4)cc3)C(=O)/C=C/c3ccc(C#N)cc3)CC2)CC1` [Example 179, (E)-3-(4-Cyano-phenyl)-N-(1′-methyl-[1,4′]bipiperidinyl-4-yl)-N-[4-(methyl-pyridin-4-yl-amino)-benzyl]-acrylamide] showed an IC50 of 54 nM.
The same measure for `CN1CCC(N2CCC(N(Cc3ccc(N(C)c4ccncc4)cc3)C(=O)/C=C/c3ccc(Cl)cc3)CC2)CC1` [Example 180, (E)-3-(4-Chloro-phenyl)-N-(1′-methyl-[1,4′]bipiperidinyl-4-yl)-N-[4-(methyl-pyridin-4-yl-amino)-benzyl]-acrylamide]: 21 nM; for `CN1CCC(N2CCC(N(Cc3ccc(N(C)c4ccncc4)cc3)C(=O)/C=C/c3ccc(OC(F)F)cc3)CC2)CC1` [Example 181, (E)-3-(4-Difluoromethoxy-phenyl)-N-(1′-methyl-[1,4′]bipiperidinyl-4-yl)-N-[4-(methyl-pyridin-4-yl-amino)-benzyl]-acrylamide]: 36 nM; for `CN1CCC(N2CCC(N(Cc3ccc(N(C)c4ccncc4)cc3)C(=O)/C=C/c3ccccc3)CC2)CC1` [Example 182, (E)-N-(1′-Methyl-[1,4′]bipiperidinyl-4-yl)-N-[4-(methyl-pyridin-4-yl-amino)-benzyl]-3-phenyl-acrylamide]: 69 nM.
The same measure for `CN1CCC(N2CCC(N(Cc3ccc(N(C)c4ccncc4)cc3)C(=O)/C=C/c3ccc(C(F)(F)F)nc3)CC2)CC1` [Example 183, (E)-N-(1′-Methyl-[1,4′]bipiperidinyl-4-yl)-N-[4-(methyl-pyridin-4-yl-amino)-benzyl]-3-(6-trifluoromethyl-pyridin-3-yl)-acrylamide]: 49 nM.
In turn, `Cc1cc(N(C)c2ccc(CN(C(=O)/C=C/c3ccc(C(F)(F)F)cc3)C3CCN(C4CCCC4)CC3)cc2)ccn1` [Example 184, (E)-N-(1-Cyclopentyl-piperidin-4-yl)-N-{4-[methyl-(2-methyl-pyridin-4-yl)-amino]-benzyl}-3-(4-trifluoromethyl-phenyl)-acrylamide] had an IC50 of 44 nM. The IC50 values of the last two molecules are within 1.5-fold of each other.
The figure for `CCN(CC)Cc1cc(Nc2ccc(CN(C(=O)/C=C/c3ccc(C(F)(F)F)cc3)C3CCN(C)CC3)cc2)ccc1O` [Example 185, (E)-N-[4-(3-Diethylaminomethyl-4-hydroxy-phenylamino)-benzyl]-N-(1-methyl-piperidin-4-yl)-3-(4-trifluoromethyl-phenyl)-acrylamide] is 39 nM; for `Cc1cc(Nc2ccc(CN(C(=O)/C=C/c3ccc(C(F)(F)F)cc3)C3CCN(C(C)C)CC3)cc2)ccn1` [Example 186, (E)-N-(1-Isopropyl-piperidin-4-yl)-N-[4-(2-methyl-pyridin-4-ylamino)-benzyl]-3-(4-trifluoromethyl-phenyl)-acrylamide] it is 43 nM.
In turn, `CN1CCC(N2CCC(CN(Cc3ccc(N(C)c4ccncc4)cc3)C(=O)/C=C/c3ccc(C(F)(F)F)cc3)CC2)CC1` [Example 187, (E)-N-(1′-Methyl-[1,4′]bipiperidinyl-4-ylmethyl)-N-[4-(methyl-pyridin-4-yl-amino)-benzyl]-3-(4-trifluoromethyl-phenyl)-acrylamide] came in with an IC50 of 16 nM.
The figure for `CN(c1ccncc1)c1ccc(CN(CC2CCN(C3CCCC3)CC2)C(=O)/C=C/c2ccc(C(F)(F)F)cc2)cc1` [Example 188, (E)-N-(1-Cyclopentyl-piperidin-4-ylmethyl)-N-[4-(methyl-pyridin-4-yl-amino)-benzyl]-3-(4-trifluoromethyl-phenyl)-acrylamide] is 40 nM; for `CC(C)CCN1CCC(CN(Cc2ccc(N(C)c3ccncc3)cc2)C(=O)/C=C/c2ccc(C(F)(F)F)cc2)CC1` [Example 189, (E)-N-[1-(3-Methyl-butyl)-piperidin-4-ylmethyl]-N-[4-(methyl-pyridin-4-yl-amino)-benzyl]-3-(4-trifluoromethyl-phenyl)-acrylamide] it is 34 nM.
The figure for `CN(c1ccncc1)c1ccc(CN(C(=O)/C=C/c2ccc(C(F)(F)F)cc2)[C@H]2CC[C@H](N(C)C)CC2)cc1` [Example 190, (±)-trans-(E)-N-(4-Dimethylamino-cyclohexyl)-N-[4-(methyl-pyridin-4-yl-amino)-benzyl]-3-(4-trifluoromethyl-phenyl)-acrylamide] is 63 nM.
The figure for `CN(c1ccncc1)c1ccc(CN(C(=O)/C=C/c2ccc(C(F)(F)F)cc2)[C@H]2CC[C@@H](N(C)C)CC2)cc1` [Example 191, (±)-cis-(E)-N-(4-Dimethylamino-cyclohexyl)-N-[4-(methyl-pyridin-4-yl-amino)-benzyl]-3-(4-trifluoromethyl-phenyl)-acrylamide] is 34 nM; for `CN(c1ccncc1)c1ccc(CN(C(=O)/C=C/c2ccc(C(F)(F)F)cc2)[C@H]2CC[C@@H](N3CCCC3)CC2)cc1` [Example 192, (±)-cis-(E)-N-[4-(Methyl-pyridin-4-yl-amino)-benzyl]-N-(4-pyrrolidin-1-yl-cyclohexyl)-3-(4-trifluoromethyl-phenyl)-acrylamide] it is 25 nM.
With `CN(c1ccncc1)c1ccc(CN(C(=O)/C=C/c2ccc(C(F)(F)F)cc2)[C@H]2CC[C@H](N3CCCC3)CC2)cc1` [Example 193, (±)-trans-(E)-N-[4-(Methyl-pyridin-4-yl-amino)-benzyl]-N-(4-pyrrolidin-1-yl-cyclohexyl)-3-(4-trifluoromethyl-phenyl)-acrylamide], 49 nM corresponded to half-maximal inhibition (IC50).
The figure for `CN1CCC(N2CCC(N(Cc3ccc(C(=O)c4ccncc4)cc3)C(=O)/C=C/c3ccc(C(F)(F)F)cc3)CC2)CC1` [Example 194, (E)-N-(1′-Methyl-[1,4′]bipiperidinyl-4-yl)-N-[4-(pyridine-4-carbonyl)-benzyl]-3-(4-trifluoromethyl-phenyl)-acrylamide] is 127 nM.
The figure for `CN(C)CCN1CCC(N(Cc2ccc(N(C)c3ccncc3)cc2)C(=O)/C=C/c2ccc(C(F)(F)F)cc2)CC1` [Example 195, (E)-N-[1-(2-Dimethylamino-ethyl)-piperidin-4-yl]-N-[4-(methyl-pyridin-4-yl-amino)-benzyl]-3-(4-trifluoromethyl-phenyl)-acrylamide formate] is 57 nM; for `Cc1cc(-c2ccc(CN(C(=O)/C=C/c3ccc(C(F)(F)F)cc3)C3CCN(C4CCCC4)CC3)cc2)ccn1` [Example 196, (E)-N-(1-Cyclopentyl-piperidin-4-yl)-N-[4-(2-methyl-pyridin-4-yl)-benzyl]-3-(4-trifluoromethyl-phenyl)-acrylamide] it is 248 nM; for `O=C(/C=C/c1ccc(C(F)(F)F)cc1)N(Cc1ccc(-c2cccnc2)cc1)C1CCN(C2CCCC2)CC1` [Example 197, (E)-N-(1-Cyclopentyl-piperidin-4-yl)-N-(4-pyridin-3-yl-benzyl)-3-(4-trifluoromethyl-phenyl)-acrylamide] it is 184 nM.
Take `O=C(/C=C/c1ccc(C(F)(F)F)cc1)N(Cc1ccc(-c2ccccn2)cc1)C1CCN(C2CCCC2)CC1` [Example 198, (E)-N-(1-Cyclopentyl-piperidin-4-yl)-N-(4-pyridin-2-yl-benzyl)-3-(4-trifluoromethyl-phenyl)-acrylamide]: the IC50 is 355 nM.
In the case of `CC(C)N1CCN(c2ccc(CN(C(=O)/C=C/c3ccc(C(F)(F)F)cc3)C3CCN(C4CCCC4)CC3)cc2)CC1` [Example 199, (E)-N-(1-Cyclopentyl-piperidin-4-yl)-N-[4-(4-isopropyl-piperazin-1-yl)-benzyl]-3-(4-trifluoromethyl-phenyl)-acrylamide], the IC50 is 96 nM.
The same measure for `CN1CCN(c2ccc(CN(C(=O)/C=C/c3ccc(C(F)(F)F)cc3)C3CCN(C4CCCC4)CC3)cc2)CC1` [Example 200, (E)-N-(1-Cyclopentyl-piperidin-4-yl)-N-[4-(4-methyl-piperazin-1-yl)-benzyl]-3-(4-trifluoromethyl-phenyl)-acrylamide]: 232 nM; for `Cc1ncc(-c2ccc(CN(C(=O)/C=C/c3ccc(C(F)(F)F)cc3)C3CCN(C4CCCC4)CC3)cc2)s1` [Example 201, (E)-N-(1-Cyclopentyl-piperidin-4-yl)-N-[4-(2-methyl-thiazol-5-yl)-benzyl]-3-(4-trifluoromethyl-phenyl)-acrylamide]: 357 nM.
`Cn1ccc(-c2ccc(CN(C(=O)/C=C/c3ccc(C(F)(F)F)cc3)C3CCN(C4CCCC4)CC3)cc2)n1` [Example 202, (E)-N-(1-Cyclopentyl-piperidin-4-yl)-N-[4-(1-methyl-1H-pyrazol-3-yl)-benzyl]-3-(4-trifluoromethyl-phenyl)-acrylamide] came in with an IC50 of 434 nM.
The same measure for `O=C(/C=C/c1ccc(C(F)(F)F)cc1)N(Cc1ccc(-c2ncccn2)cc1)C1CCN(C2CCCC2)CC1` [Example 203, (E)-N-(1-Cyclopentyl-piperidin-4-yl)-N-(4-pyrimidin-2-yl-benzyl)-3-(4-trifluoromethyl-phenyl)-acrylamide]: 400 nM.
The figure for `O=C(/C=C/c1ccc(C(F)(F)F)cc1)N(Cc1ccc(-c2cncnc2)cc1)C1CCN(C2CCCC2)CC1` [Example 204, (E)-N-(1-Cyclopentyl-piperidin-4-yl)-N-(4-pyrimidin-5-yl-benzyl)-3-(4-trifluoromethyl-phenyl)-acrylamide] is 431 nM; for `CN(C)CCCOc1ccc(CN(C(=O)/C=C/c2ccc(C(F)(F)F)cc2)C2CCN(C3CCCC3)CC2)cc1` [Example 205, (E)-N-(1-Cyclopentyl-piperidin-4-yl)-N-[4-(3-dimethylamino-propoxy)-benzyl]-3-(4-trifluoromethyl-phenyl)-acrylamide] it is 82 nM.
